Results reported in patent publication US12312327B2, “Crystal of 1,3,5-triazine derivative or solvate thereof and method for producing same” (Shionogi & Co., Ltd., priority 2019, dated 2025).

Columns and labels:
[1] = Flowability test (Compressibility index and Hausner ratio); format: physicochemical; conditions: for Compressibility index (%): (V0−Vf)/V0×100; for Hausner ratio: V0/Vf; for V0 (mL), loose bulk volume: about 10 g sample in 50 mL measuring cylinder, no compaction; for V0 (mL), loose bulk volume / Vf (mL), final tap volume: average of three; for Vf (mL), final tap volume: about 10 g sample, tapped until volume difference <= 0.5 mL
Experimental: 1) About 10 g of a sample was gently put into a 50 mL measuring cylinder, and the sample amount was measured.
2) The upper surface of the powder layer was carefully leveled without compaction, and the loose bulk volume (V0) was read.
3) The measuring cylinder was mounted on a support stand of a powder tester (PT-X type, Hosokawa Micron Corporation).
4) The powder sample was tapped 10 times, 500 times, 1250 times, 2500 times and the corresponding bulk volumes (V10, V500, V1250, V2500) were read.
5) The process was ended when the volume difference was equal to or less than the minimum scale (0.5 mL), and the final bulk volume was defined as the final tap volume (Vf).
6) The steps 1) to 5) were repeated three times and measured, and the average values were adopted for calculation of the Compressibility index and the Hausner ratio.
Compressibility index=(V0−Vf)/V0×100 Hausner ratio=V0/Vf

[2] = Solid stability test (80° C. hermetically sealed, one week, HPLC Method D); format: physicochemical; conditions: for Residual ratio (%): sealed storage, content by HPLC; for Types of analogous substances generated: 80° C. hermetically sealed, one week
Experimental: Column: Cadenza CD-C18, φ 3.0×150 mm, 3 μm
Flow rate: 0.55 mL per minute
UV detection wavelength: 262 nm
Mobile phase A: 0.1% TFA aqueous solution
Mobile phase B: Acetonitrile
5 mg sample (n=4) was precisely weighed in 2 mL vial, capped, and stored at a predetermined temperature (sealed storage). Then, each sample was taken out after storage for a predetermined period, and stability (content) was evaluated.
80° C. hermetically sealed
Each vial was washed out into a 25 mL volumetric flask.
Diluting medium: acetonitrile/water=1/1

| Compressibility index (%) [1] | Hausner ratio [1] | V0 (mL), loose bulk volume [1] | Vf (mL), final tap volume [1] | Peak area (%) of analogous substance, retention time 15.5 min ([2]; 80° C. 1W) | Purity (%) ([2]; 80° C. 1W) | Residual ratio (%) ([2]; 80° C. 1W) | Types of analogous substances generated [2] | Peak area (%) of analogous substance, retention time 15.5 min ([2]; Initial) | Purity (%) ([2]; Initial) | Peak area (%) of analogous substance, retention time 3 min ([2]; 80° C. 1W) | SMILES | further results |
| --- | --- | --- | --- | --- | --- | --- | --- | --- | --- | --- | --- | --- |
| 25.4% | 1.3 | 19.0 mL | 14.2 mL | 0.16% | 99.77% | 99.79% | three types | 0.16% | 99.76% |  | C[C@@H](Cn1c(=O)[nH]/c(=N\c2ccc(Oc3ccccn3)cc2)n(Cc2ccc(Cl)cc2)c1=O)C(=O)O [Anhydrous crystal Form I of compound represented by Formula ] | Flowability compared with the other crystal forms ([1]; from Compressibility index, Table 15): better flowability as compared with the other two crystal forms; Peak area (%) of analogous substance, retention time 17.1 min ([2]; 80° C. 1W): 0.04%; Peak area (%) of analogous substance, retention time 20.6 min ([2]; 80° C. 1W): 0.03%; Peak area (%) of analogous substance, retention time 17.1 min ([2]; Initial): 0.05%; Peak area (%) of analogous substance, retention time 20.6 min ([2]; Initial): 0.03% |
| 35.9% | 1.6 | 30.7 mL | 19.7 mL | 0.09% | 99.86% | 99.13% | two types | 0.09% | 99.91% | 0.05% | C[C@@H](Cn1c(=O)[nH]/c(=N\c2ccc(Oc3ccccn3)cc2)n(Cc2ccc(Cl)cc2)c1=O)C(=O)O [Dihydrate crystal of compound represented by Formula (I)] |  |
| 36.7% | 1.6 | 36.8 mL | 23.3 mL |  | 99.71% | 99.03% | five types |  | 99.71% | 0.06% | C[C@@H](Cn1c(=O)[nH]/c(=N\c2ccc(Oc3ccccn3)cc2)n(Cc2ccc(Cl)cc2)c1=O)C(=O)O [Ethyl acetate/hexane solvate crystal of compound represented] [reference compound] | Peak area (%) of analogous substance, retention time 5.8 min ([2]; 80° C. 1W): 0.01%; Peak area (%) of analogous substance, retention time 10.5 min ([2]; 80° C. 1W): 0.14%; Peak area (%) of analogous substance, retention time 14 min ([2]; 80° C. 1W): 0.04%; Peak area (%) of analogous substance, retention time 16.9 min ([2]; 80° C. 1W): 0.03%; Peak area (%) of analogous substance, retention time 3 min ([2]; Initial): 0.06%; Peak area (%) of analogous substance, retention time 5.8 min ([2]; Initial): 0.01%; Peak area (%) of analogous substance, retention time 10.5 min ([2]; Initial): 0.15%; Peak area (%) of analogous substance, retention time 14 min ([2]; Initial): 0.04%; Peak area (%) of analogous substance, retention time 16.9 min ([2]; Initial): 0.04% |
